Test results: US8889876B2, “Histone deacetylase inhibitors and uses thereof” (Jiangsu Hengyi Pharmaceutical Co., Ltd., priority 2008, dated 2014)
Values after ≈ are worked out from the molar mass of the structure shown.

Columns and labels:
histone deacetylase = test: in vitro inhibition activity on histone deacetylase (rat liver homogenate, MAL fluorescent substrate); type: biochemical, rats; conditions: n = 4, 37° C., 16 hours
Experimental: A 96-well plate (black) for determining […] is made by Costar Company of U.S. The histone deacetylase is obtained by homogenization of liver of rats. The histone deacetylase reacts with small molecular fluorescent substrate MAL such that the substrate MAL is deacetylated to become ML.
The compound to be detected is dissolved with 200 μL of DMSO. The stock solution of the compound to be detected is diluted with PBS to a concentration of the working solution. The histone deacetylase, the MAL fluorescent substrate and the compound to be detected are mixed in a water bath at 37° C. and reacted 16 hours. The final concentration of the compound to be detected is: MS275 and its similar compound: 10, 100 μmol/.
The reaction solution is extracted with ethyl acetate. The extract is pumped in vacuum and thereto added 110 μL of methanol (40%). Taking 50 μL/well to a 96-well plate and making a fluorescent detection at 325/390 nm.
The negative control wherein histone deacetylase is not added to the reaction is 100% inhibition. The control that only contains histone deacetylase without any inhibitor is the background (0% inhibition). The inhibition rate of the sample to be detected=(the detected fluorescent value−the background)/(the fluorescent value of the negative control−background)×100%
The inhibition rate and the standard deviation in the results are the average inhibition percentage and the standard deviation of each parallel well in each dosage group.

[1] = test system: K562: human chronic myeloid leukemia cell strain; test: MTT cytotoxicity to tumor cell strains, K562; type: cell-based; conditions: Homo sapiens, read-out: Cell activity (IC50, μg/ml) K562
Experimental: (§1) The cytotoxicity of samples to tumor cell strains is determined through MTT.

[2] = test system: A549 (human lung adenocarcinoma cells); test: MTT cytotoxicity to tumor cell strains, A549; type: cell-based; conditions: Homo sapiens, read-out: Cell activity (IC50, μg/ml) A549
Experimental: as §1

[3] = test system: Hut 78 (T-cell Leukemia cell); test: MTT cytotoxicity to tumor cell strains, Hut 78; type: cell-based; conditions: Homo sapiens, HuT78; Hut 78, MTT; read-out: Cell activity (IC50, μg/ml) Hut 78
Experimental: as §1

[4] = test system: Hut78 T-cell Leukemia cell; test: CCK-8 proliferation inhibition, Hut78; type: cell-based; conditions: Homo sapiens, read-out: Hut-78 (inhibition %); for inhibition at 10 µM: HuT78, 10 μM; for inhibition at 100 µM: HuT78, 100 μM
Method in brief: (§2)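 Percent inhibition at 100 μM and 10 μM compound; CCK-8 readout.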

[5] = test system: PANC-1 human pancreatic cancer cells; test: CCK-8 proliferation inhibition, PANC-1; type: cell-based; conditions: Homo sapiens; for inhibition at 10 µM: PANC-1, 10 μM; for inhibition at 100 µM: PANC-1, 100 μM
Method in brief: as §2

[6] = test system: Jurkat E6-1 human T-cell lymphoma; test: CCK-8 proliferation inhibition, Jurkat E6-1; type: cell-based; conditions: Homo sapiens; for inhibition at 10 µM: Jurkat E6.1, 10 μM; for inhibition at 100 µM: Jurkat E6.1, 100 μM
Method in brief: as §2

[7] = test system: K562 human chronic myeloid leukemia cells; test: CCK-8 proliferation inhibition, K562; type: cell-based; conditions: Homo sapiens; for inhibition at 10 µM: K562, 10 μM; for inhibition at 100 µM: K562, 100 μM
Method in brief: as §2

[8] = test system: A549 human lung cancer cells; test: CCK-8 proliferation inhibition, A549; type: cell-based; conditions: Homo sapiens, A549, CCK-8 method; for inhibition at 10 µM: compound concentration 10 μM; for inhibition at 100 µM: compound concentration 100 μM
Method in brief: as §2

[9] = test system: MDA-MB-435s human breast cancer cells; test: CCK-8 proliferation inhibition, MDA-MB-435s; type: cell-based; conditions: Homo sapiens, MDA-MB-435S, CCK-8 method; for inhibition at 10 µM: compound concentration 10 μM; for inhibition at 100 µM: compound concentration 100 μM
Method in brief: as §2

[10] = test system: Hep3B2.1-7 human liver cancer cells; test: CCK-8 proliferation inhibition, Hep3B2.1-7; type: cell-based; conditions: Homo sapiens, Hep3B, CCK-8 method; for inhibition at 10 µM: compound concentration 10 μM; for inhibition at 100 µM: compound concentration 100 μM
Method in brief: as §2

[11] = test system: PC-3 human prostate cancer; test: CCK-8 proliferation inhibition, PC-3; type: cell-based; conditions: Homo sapiens, CCK-8 method; for inhibition at 10 µM: compound concentration 10 μM; for inhibition at 100 µM: compound concentration 100 μM
Method in brief: as §2

[12] = test system: Colo320 human rectal cancer cells; test: CCK-8 proliferation inhibition, Colo320; type: cell-based; conditions: Homo sapiens, COLO 320, CCK-8 method; for inhibition at 10 µM: compound concentration 10 μM; for inhibition at 100 µM: compound concentration 100 μM
Method in brief: as §2

Compound | inhibition rate % average number (histone deacetylase; dosage 10 μmol/L) [%] | inhibition rate % average number (histone deacetylase; dosage 100 μmol/L) [%] | IC50 [1] [µg/mL] | IC50 [2] [µg/mL] | IC50 [3] [µg/mL] | inhibition at 10 µM [4] [%] | inhibition at 100 µM [4] [%] | inhibition at 10 µM [5] [%] | inhibition at 100 µM [5] [%] | inhibition at 10 µM [6] [%] | inhibition at 100 µM [6] [%] | inhibition at 10 µM [7] [%] | inhibition at 100 µM [7] [%] | inhibition at 10 µM [8] [%] | inhibition at 100 µM [8] [%] | inhibition at 10 µM [9] [%] | inhibition at 100 µM [9] [%] | inhibition at 10 µM [10] [%] | inhibition at 100 µM [10] [%] | inhibition at 10 µM [11] [%] | further results
Nc1ccccc1CNC(=O)c1ccc(CNC(=O)OCc2cccnc2)cc1 [V-1, N-(2-aminobenzyl)-4-[(3-pyridylmethoxyacyl)aminomethyl]benzamide] | 0.479 | 0.293 | > 100 | > 100 | 12.5 (≈ 32 µM) |  |  |  |  |  |  |  |  |  |  |  |  |  |  |  | 
O=C(NCc1ccc(C(=O)Nc2ccccn2)cc1)OCc1cccnc1 [V-2, N-(2-pyridyl)-4-[(3-pyridylmethoxyacyl)aminomethyl]benzamide] | −0.124 | 0.080 | > 100 | > 100 | 76.2 (≈ 210 µM) |  |  |  |  |  |  |  |  |  |  |  |  |  |  |  | 
O=C(NCc1ccc(C(=O)Nc2cccnc2)cc1)OCc1cccnc1 [V-3, N-(3-pyridyl)-4-[(3-pyridylmethoxyacyl)aminomethyl]benzamide] | 0.170 | 0.481 | > 100 | > 100 | 38.8 (≈ 107 µM) |  |  |  |  |  |  |  |  |  |  |  |  |  |  |  | 
COc1cc(/C=C/C(=O)NCc2ccc(C(=O)Nc3cccnc3N)cc2)cc(OC)c1OC [V-34, N-(2-amino-3-pyridyl)-4-[(3,4,5-trimethoxycinnamoyl)aminomethyl]benzamide] |  |  | > 100 | > 100 | 68.5 (≈ 148 µM) | 9.9 | 53.1 | 9.2 | 4 | 4.7 | 52.7 | 12.8 | 61.2 | -7.4 | 6.2 | 21.5 | 42.9 | 1 | 28.1 | 7 | inhibition at 100 µM [11]: 40.2%; inhibition at 10 µM [12]: 7.3%; inhibition at 100 µM [12]: 5.9%
Nc1ncccc1NC(=O)c1ccc(CNC(=O)/C=C/c2ccc([N+](=O)[O-])cc2)cc1 [V-36, N-(2-amino-3-pyridyl)-4-[(4-nitrocinnamoyl)aminomethyl]benzamide] |  |  | > 100 | > 100 | 17.1 (≈ 40.9 µM) | 8.1 | 60 | 20.8 | 39.5 | 12.5 | 83.3 | 34.1 | 64.8 | 2.4 | 12 | 30.8 | 61.2 | 11.3 | 40.6 | -9.4 | inhibition at 100 µM [11]: 22.1%; inhibition at 10 µM [12]: 7.9%; inhibition at 100 µM [12]: 14.1%
